# Measured values reported in ChEMBL document CHEMBL5584237, “Design, synthesis, biological evaluation, and in silico studies of novel pyridopyridine derivatives as anticancer candidates targeting FMS kinase” (Eur J Med Chem, 2024).
# pIC50: −log10 of the molar value.
# What was measured:
# SR = assay: Antiproliferative activity against human SR cells assessed as cell growth inhibition; type: functional
# [1] = target: Macrophage colony-stimulating factor 1 receptor (Homo sapiens, UniProt P07333); assay: Inhibition of FMS (unknown origin) using myelin basic protein as substrate measured after 40 mins in presence of [gamma-33P]-ATP by scintillation counting method; conditions: read-out: IC50
# Chain of Macrophage colony-stimulating factor 1 receptor (P07333 whole entry): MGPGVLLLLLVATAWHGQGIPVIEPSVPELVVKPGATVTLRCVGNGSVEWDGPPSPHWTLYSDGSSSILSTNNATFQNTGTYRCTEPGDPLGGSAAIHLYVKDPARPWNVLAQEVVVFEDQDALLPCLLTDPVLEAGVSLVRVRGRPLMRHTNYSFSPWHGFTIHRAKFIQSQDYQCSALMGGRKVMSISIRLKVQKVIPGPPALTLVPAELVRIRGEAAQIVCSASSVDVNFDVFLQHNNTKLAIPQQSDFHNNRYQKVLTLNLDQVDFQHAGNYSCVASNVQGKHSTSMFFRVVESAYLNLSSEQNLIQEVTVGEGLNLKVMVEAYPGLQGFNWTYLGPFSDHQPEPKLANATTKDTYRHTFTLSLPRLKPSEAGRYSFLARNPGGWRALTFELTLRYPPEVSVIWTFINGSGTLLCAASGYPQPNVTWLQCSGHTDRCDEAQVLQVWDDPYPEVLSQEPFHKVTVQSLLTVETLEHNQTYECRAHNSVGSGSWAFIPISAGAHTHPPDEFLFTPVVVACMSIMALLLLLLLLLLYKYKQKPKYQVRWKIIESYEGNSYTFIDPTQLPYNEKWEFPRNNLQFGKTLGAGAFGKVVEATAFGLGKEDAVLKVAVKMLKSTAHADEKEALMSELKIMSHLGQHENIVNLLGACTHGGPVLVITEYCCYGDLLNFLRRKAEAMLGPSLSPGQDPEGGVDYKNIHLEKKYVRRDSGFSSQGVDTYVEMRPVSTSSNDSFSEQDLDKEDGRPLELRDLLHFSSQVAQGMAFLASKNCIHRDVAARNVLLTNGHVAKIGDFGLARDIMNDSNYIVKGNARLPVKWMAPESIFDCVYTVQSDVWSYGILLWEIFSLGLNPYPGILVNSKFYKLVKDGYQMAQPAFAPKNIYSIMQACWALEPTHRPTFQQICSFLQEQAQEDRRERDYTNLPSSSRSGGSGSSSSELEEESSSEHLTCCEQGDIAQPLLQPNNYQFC
# [2] = Selectivity index, ratio of IC50 for human HS27 cells to IC50 for human CCRF-CEM cells
# [3] = Selectivity index, ratio of IC50 for human WI-38 cells to IC50 for human CCRF-CEM cells; type: toxicity; conditions: WI-38 cells and CCRF-CEM cells, read-out: Ratio IC50
# [4] = Selectivity index, ratio of IC50 for human HS27 cells to IC50 for human SF-295 cells
# RXF 393 = assay: Antiproliferative activity against human RXF 393 cells assessed as cell growth inhibition; type: functional
# [5] = Selectivity index, ratio of IC50 for human HS27 cells to IC50 for human MOLT-4 cells
# HT-29 = assay: Antiproliferative activity against human HT-29 cells assessed as cell growth inhibition; type: functional
compound,measurement,setting,value
CCN1CCN(c2ccc(NC(=O)Nc3ccc(-c4cc(C(=O)NC(C)C)c5ncccc5n4)cc3)cc2C(F)(F)F)CC1,TGI,SR,12.1 µM
same,pIC50,[1],6.00
same,Ratio IC50,[2],8
same,selectivity ratio,[3],15.4
same,Ratio IC50,[4],4.52
same,GI50,RXF 393,0.65 µM
same,TGI,RXF 393,1.73 µM
same,Ratio IC50,[5],8
same,GI50,HT-29,0.67 µM
same,TGI,HT-29,1.32 µM
